Assay results: ChEMBL document CHEMBL5360547 (Eur J Med Chem, 2023)
Activity calls are given as the source filed them. No cut-off for these calls is given here.

Columns and labels:
[1] = system: SH-SY5Y; experiment: Neuroprotective activity against oxygen glucose deprivation induced ischemic stroke model in human SH-SY5Y cells assessed as cell viability at 2 uM incubated for 24 hrs by CCK-8 assay; assay type: functional; details: read-out: Activity
[2] = system: SH-SY5Y; experiment: Neuroprotective activity against oxygen glucose deprivation induced ischemic stroke model in human SH-SY5Y cells assessed as cell viability at 20 uM incubated for 24 hrs by CCK-8 assay; assay type: functional; details: read-out: Activity
[3] = system: Cortical neurone; experiment: Cytotoxicity against primary C57BL/6J E14-17 mouse Cortical neuron assessed as decrease in cell viability upto 50 uM incubated for 24 hrs by CCK-8 assay; assay type: toxicity, cell-based
[4] = system: Mus musculus; experiment: Neuroprotective activity against middle cerebral artery occlusion-induced brain infarction C57BL/6 mouse model assessed as decrease in neurological deficit score at 10 mg/kg, ip and measured after 24 hrs by animal behavioral study relative to control; assay type: functional
[5] = Toxicity in middle cerebral artery occlusion-induced brain infarction C57BL/6 mouse model assessed as survival rate at 10 mg/kg, ip and measured after 24 hrs; assay type: organism-based; details: in vivo
[6] = in vivo; details: C57BL/6, mouse, ip, 20 mg/kg
[7] = system: Cortical neurone; experiment: Neuroprotective activity against oxygen glucose deprivation induced ischemic stroke model in primary C57BL/6J E14-17 mouse Cortical neurons assessed as increase in cell viability at 0.5 to 20 uM incubated for 24 hrs by CCK-8 assay; assay type: functional, cell-based; details: dose 0.5-20 µM
[8] = system: Mus musculus; experiment: Neuroprotective activity against middle cerebral artery occlusion-induced brain infarction C57BL/6 mouse model assessed as reduction in cerebral infarct volume at 20 mg/kg, ip and measured after 24 hrs by TTC staining based assay; assay type: functional, organism-based
[9] = system: Cortical neurone; experiment: Cytotoxicity against primary C57BL/6J E14-17 mouse Cortical neuron assessed as decrease in cell viability at 10 uM incubated for 24 hrs by CCK-8 assay relative to control; assay type: toxicity, cell-based
[10] = system: Cortical neurone; experiment: Cytotoxicity against primary C57BL/6J E14-17 mouse Cortical neuron assessed as decrease in cell viability at 0.1 to 5 uM incubated for 24 hrs by CCK-8 assay; assay type: toxicity, cell-based; details: dose 0.1-5 µM
[11] = system: Cortical neurone; experiment: Cytotoxicity against primary C57BL/6J E14-17 mouse Cortical neuron assessed as decrease in cell viability at 10 to 20 uM incubated for 24 hrs by CCK-8 assay; assay type: toxicity, cell-based; details: dose 10-20 µM
[12] = system: Cortical neurone; experiment: Cytotoxicity against primary C57BL/6J E14-17 mouse Cortical neuron assessed as decrease in cell viability at 1 uM incubated for 24 hrs by CCK-8 assay relative to control; assay type: toxicity, cell-based
[13] = system: Cortical neurone; experiment: Neuroprotective activity against oxygen glucose deprivation induced ischemic stroke model in primary C57BL/6J E14-17 mouse Cortical neurons assessed as increase in cell viability at 5 uM incubated for 24 hrs by CCK-8 assay (Rvb= 57.43 +/- 2.54 %); assay type: functional
[14] = system: Cortical neurone; experiment: Neuroprotective activity against oxygen glucose deprivation induced ischemic stroke model in primary C57BL/6J E14-17 mouse Cortical neurons assessed as increase in cell viability at 1 uM incubated for 24 hrs by CCK-8 assay (Rvb= 57.43 +/- 2.54 %); assay type: functional; details: 24 h, 1 µM
[15] = system: Cortical neurone; experiment: Neuroprotective activity against oxygen glucose deprivation induced ischemic stroke model in primary C57BL/6J E14-17 mouse Cortical neurons assessed as increase in cell viability at 10 uM incubated for 24 hrs by CCK-8 assay (Rvb= 57.43 +/- 2.54 %); assay type: functional; details: 24 h, 10 µM
[16] = system: Cortical neurone; experiment: Neuroprotective activity against oxygen glucose deprivation induced ischemic stroke model in primary C57BL/6J E14-17 mouse Cortical neurons assessed as increase in cell viability at 0.1 to 20 uM incubated for 24 hrs by CCK-8 assay; assay type: functional, cell-based; details: dose 0.1-20 µM
[17] = system: Cortical neurone; experiment: Cytotoxicity against primary C57BL/6J E14-17 mouse Cortical neuron assessed as decrease in cell viability at 0.1 to 20 uM incubated for 24 hrs by CCK-8 assay; assay type: toxicity, cell-based; details: dose 0.1-20 µM

SMILES: O=C(/C=C/c1ccc(O)c2c1[C@H](C(=O)O[C@H](Cc1ccc(O)c(O)c1)C(=O)O)[C@@H](c1ccc(O)c(O)c1)O2)O[C@H](Cc1ccc(O)c(O)c1)C(=O)O
- viability at 2 µM [1]: 73.4%
- viability at 20 µM [2]: 78.1%

SMILES: CCCCCCCCN(C)[C@H]1CC[C@@H](c2ccc(Cl)c(Cl)c2)c2ccccc21 [listing 1 of 2 here]
- Activity [3]: Non-Toxic
- Activity [4]: 1.5
- survival at 24 h [5]: 100%
- mortality at 24 h [6]: 35.7%

SMILES: CCCCCCCCN(C)[C@H]1CC[C@@H](c2ccc(Cl)c(Cl)c2)c2ccccc21 [listing 2 of 2 here]
- Activity [7]: Active
- Activity [8]: Active

SMILES: CN[C@H]1CC[C@@H](c2ccc(Cl)c(Cl)c2)c2ccccc21 [SERTRALINE]
- Activity [9]: 94.25%
- Activity [10]: Non-Toxic
- Activity [3]: Non-Toxic
- Activity [11]: Toxic
- Activity [12]: 99.08%
- Activity [13]: 65.9%
- viability at 2 µM [1]: 81.9%
- Activity [14]: 67.21%
- Activity [15]: 58.85%
- viability at 20 µM [2]: 30.5%

SMILES: NCCc1c[nH]c2ccc(O)cc12 [SEROTONIN]
- Activity [16]: inactive
- Activity [17]: Non-Toxic
